Measured values reported in ChEMBL document CHEMBL5357053, “Neopetrotaurines A-C, Isoquinoline Alkaloids with an Unprecedented Taurine Bridge from the Sponge Neopetrosia sp” (J Nat Prod, 2024).
Activity calls are given as the source filed them. The calls are words filed in the database; no cut-off is given here.

Tests used:
Format in all cases: functional, cell-based
[1] = Antiproliferative activity against human SCMC cells assessed as inhibition of cell viability measured after 72 hrs by IncuCyte live-cell imaging assay
[2] = tested on: SCMC; test: Downregulation of FOXO1 target gene set in human SCMC cells measured after 6 hrs by GSEA method
[3] = Antiproliferative activity against human Rh4 cells assessed as inhibition of cell viability measured after 72 hrs by IncuCyte live-cell imaging assay; conditions: Rh4, 72 h
[4] = tested on: Rh4; test: Downregulation of FOXO1 target gene set in human Rh4 cells measured after 6 hrs by GSEA method; conditions: dose 1.9 µM

Row | SMILES | IC50 [1] [µM] | Activity [2] | IC50 [3] [µM] | Activity [4]
1 | COC1=C(C)C(=O)c2c(cn(C)c(=O)c2NCCS(=O)(=O)Oc2c(C)c(OC)c(O)c3c[n+](C)ccc23)C1=O | 7.3 | inactive | 1.9 | inactive
2 | COC(=O)c1cc2c(OS(=O)(=O)CCNc3c4c(cn(C)c3=O)C(=O)C(OC)=C(C)C4=O)c(C)c(OC)c(O)c2c[n+]1C | 11 | Active | 3.3 | Active
3 | COC1=C(C)C(=O)c2c(cn(C)c(=O)c2NCCS(=O)(=O)Oc2c(C)c(OC)c(O)c3c[n+](C)c(C(=O)O)cc23)C1=O | 7.4 | inactive | 2.3 | inactive
